According to US6764829B2, “Nucleoside hydrolase and nucleoside phosphorylase detection kits, dipsticks and substrates” (Albert Einstein College of Medicine of Yeshiva University, priority 1996, dated 2004):
Read-outs that look alike come from different tables or passages of the source.

What was measured:
IU-nucleoside hydrolase = molecular target: T1, IU-nucleoside hydrolase (Crithidia fasciculata, UniProt Q27546); test: Comparison of β-D-ribofuranoside substrates with IU-nucleoside hydrolase (Table 3); assay type: biochemical; conditions: for Km: read-out: IU NH Km
T1 sequence (Q27546 1-315): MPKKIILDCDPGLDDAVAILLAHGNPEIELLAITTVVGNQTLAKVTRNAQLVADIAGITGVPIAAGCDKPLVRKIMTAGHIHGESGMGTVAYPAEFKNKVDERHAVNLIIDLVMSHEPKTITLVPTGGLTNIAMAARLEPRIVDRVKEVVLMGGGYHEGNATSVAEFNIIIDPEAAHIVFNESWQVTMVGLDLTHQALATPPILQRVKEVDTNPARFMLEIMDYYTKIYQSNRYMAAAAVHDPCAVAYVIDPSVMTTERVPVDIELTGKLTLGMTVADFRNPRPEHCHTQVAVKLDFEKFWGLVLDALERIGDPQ
Experimental: (§1) The enzymes used were highly purified samples from Crithidia fasciculata (IU-nucleoside hydrolase) and Trypanosoma brucei brucei (IAG-nucleoside hydrolase), available as stock solutions of approximately 20 mg protein/mL.
(§2) Each reaction was conducted in a quartz cuvette with a 1 cm path length, placed in the observation chamber of a UV spectrophotometer, and in a total reaction volume of 600 μL. The temperature was adjusted by use of a circulating water bath, set so that the cuvette temperature equilibrated to 30° C. in about 5 minutes.
(§3) The β-D-ribofuranoside substrates were dissolved in aqueous buffer: 50 mM CHES for reactions at pH 10, 50 mM HEPES for reactions at pH 8. […] For the remaining reactions catalysed by IAG hydrolase, a single substrate concentration of between 100 and 300 μM was used.
(§4) The absorbance of each reaction mixture was monitored at or near the absorption maximum for the phenolic aglycon (as shown in Table 3). Monitoring began 5-10 minutes before the enzyme was added to determine if the substrate was stable under the reaction conditions.
(§5) Data were fitted to the Michaelis-Menton equation using kaleidagraph, and the resulting kinetic parameters along with other relevant data are summarized in Table 3.

IAG-nucleoside hydrolase = molecular target: T2, IAG-nucleoside hydrolase (Trypanosoma brucei, UniProt Q57ZL6); test: Comparison of β-D-ribofuranoside substrates with IAG-nucleoside hydrolase (Table 3); assay type: biochemical; conditions: for IAG NH rate: at 200 μM substrate
T2 sequence (Q57ZL6 1-327): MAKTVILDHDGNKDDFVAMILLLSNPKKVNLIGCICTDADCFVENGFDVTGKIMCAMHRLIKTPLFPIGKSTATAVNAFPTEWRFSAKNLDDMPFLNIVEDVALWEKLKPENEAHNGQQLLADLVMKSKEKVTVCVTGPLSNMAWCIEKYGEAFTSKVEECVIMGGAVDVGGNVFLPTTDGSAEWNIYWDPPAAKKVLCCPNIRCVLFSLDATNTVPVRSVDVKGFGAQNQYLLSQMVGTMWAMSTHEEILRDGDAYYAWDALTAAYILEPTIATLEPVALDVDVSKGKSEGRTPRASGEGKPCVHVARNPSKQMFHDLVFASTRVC
Experimental: as §1, §2, §3, §4, §5

[1] = tested on: Giardia intestinalis (Portland 1 strain); test: Hydrolysis of substrates by Giardia intestinalis supernatants; assay type: biochemical; conditions: 0.24 mM substrate, 50 mM HEPES pH 8
Experimental: Giardia intestinalis (Portland 1 strain) was grown for 2 days in TYI-33 medium supplemented with 5 mM arginine, harvested and washed. A suspension containing 2.91×10^8 cells of Giardia intestinalis in 1 mL of aqueous HEPES buffer (40 mM. pH 7) was mixed with 1 mL of aqueous HEPES buffer (40 mM, pH 7) containing 0.1 mM protease inhibitor E-64 and sonicated (Branson sonicator, duty cycle 40, output 2.5), for 2-3 min in ice. The suspension was then centrifuged in a Beckman microfuge for 10 mins at 4° C., and the supernatant decanted.
A second suspension of 2.91×10^8 cells of Giardia intestinalis in 1 mL of aqueous HEPES buffer (40 mM, pH 7) was mixed with 1 mL of 0.5% aqueous Triton X-100, left at 4° C. overnight, and the supernatant was decanted.
Aliquots (between 2 and 100 μL) of each of these supernatants were made up to a volume of 1 mL of water containing 50 mM HEPES buffer at pH 8, 0.24 mM 4-nitrophenyl β-D-ribofuranoside or 4-pyridyl β-D-ribofuranoside. The release of the aglycon was monitored by absorption spectrometry at 400 nm or 253 nm, respectively.
Protein was determined by Lowry method (ie Folin reaction).

T. vaginalis = test: Hydrolysis of substrates by T. vaginalis extract; assay type: biochemical; conditions: Triton X-100 extract; determined as in Example 24
Experimental: T. vaginalis was grown for 2 days in TYM medium, harvested, and washed. […] The ability of the extract to hydrolyse substrates was determined as in Example 24. For 4-nitrophenyl β-D-ribofuranoside, the activity was 165 nmoles.min^−1 per 10^8 cells, corresponding to an activity for the enzyme of 9 nmoles.min^−1.(mg protein)^−1. For 4-pyridyl β-D-ribofuranoside, the activity was 74 nmoles.min^−1 per […] corresponding to an activity for the enzyme of 4 nmoles.min^−1.(mg protein)^−1.

AMP nucleosidase = AMP nucleosidase (Escherichia coli, UniProt P0AE12); test: Kinetic parameters with nitrophenylriboside 5-phosphate and purine substrate (Table 1); assay type: biochemical, E coli
AMP nucleosidase, sequence (P0AE12 whole entry): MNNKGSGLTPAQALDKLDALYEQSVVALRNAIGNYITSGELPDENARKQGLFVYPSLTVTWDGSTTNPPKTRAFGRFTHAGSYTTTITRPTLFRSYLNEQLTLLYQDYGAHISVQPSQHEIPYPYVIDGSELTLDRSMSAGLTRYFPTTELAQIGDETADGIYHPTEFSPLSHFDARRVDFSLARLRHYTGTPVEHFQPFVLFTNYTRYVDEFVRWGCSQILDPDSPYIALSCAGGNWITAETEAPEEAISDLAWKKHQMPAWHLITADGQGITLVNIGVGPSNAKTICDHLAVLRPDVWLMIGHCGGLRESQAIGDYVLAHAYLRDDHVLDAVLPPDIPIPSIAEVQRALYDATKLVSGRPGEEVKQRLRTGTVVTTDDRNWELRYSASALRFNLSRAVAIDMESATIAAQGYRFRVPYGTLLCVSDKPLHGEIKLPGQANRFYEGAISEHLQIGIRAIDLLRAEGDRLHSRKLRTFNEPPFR
Text: (§6) In this Example kinetic parameters for different enzymes were compared using nitrophenylriboside or a purine substrate. […] The E. coli and bovine spleen enzymes tested were ineffective in hydrolysing the substrate. The striking ability of one of the protozoan parasite enzymes to hydrolyse the substrate provides the basis for an assay for the protozoan parasites (see Example 22).

[2] = substrate: O=[N+]([O-])c1ccc(O[C@@H]2O[C@H](CO)[C@@H](O)[C@H]2O)cc1; test: Kinetic parameters (phosphorolysis) with nitrophenylriboside and purine substrate (Table 1); assay type: biochemical, bovine; conditions: other: nitrophenylriboside as substrate, pH 8.0 in 50 mM HEPES, 30° C., 3 mM phosphate
Text: as §6

[3] = nitrophenylriboside 5-phosphate as substrate, pH 8.0 in 50 mM HEPES, 30° C., MgATP 100 μM

For `OC[C@H]1O[C@@H](Oc2cccc3ccccc23)[C@H](O)[C@@H]1O` [Example 2, α-naphthyl β-D-ribofuranoside], the Ki (IU-nucleoside hydrolase) was 7.3 µM, the “IU NH kcat” value (IU-nucleoside hydrolase; At pH 10, at 250 μM) was “.009 s⁻¹” and the “IAG NH rate” value (IAG-nucleoside hydrolase; pH 10.0) was under 0.05 min⁻¹.

Molecule `O=C(Nc1cccc(O[C@@H]2O[C@H](CO)[C@@H](O)[C@H]2O)c1)C(F)(F)F` [Example 3, 3-trifluoroacetamidophenyl β-D-ribofuranoside] has a Ki (IU-nucleoside hydrolase) of 27.7 µM.

`Nc1cccc(O[C@@H]2O[C@H](CO)[C@@H](O)[C@H]2O)c1` [Example 4, 3-aminophenyl β-D-ribofuranoside] was tested, and the Ki (IU-nucleoside hydrolase) was 72 µM, the “IU NH kcat” value (IU-nucleoside hydrolase; At pH 10, at 1240 μM) was 0.7 s⁻¹ and the “IAG NH rate” value (IAG-nucleoside hydrolase; pH 10.0) was under 0.02 min⁻¹.

In the case of `O=C1CCCc2c(O[C@@H]3O[C@H](CO)[C@@H](O)[C@H]3O)cccc21` [Example 5, 1-tetralone-5-yl β-D-ribofuranoside], the “IU NH kcat” value (IU-nucleoside hydrolase; At pH 10, at 200 μM) is reported as 0.5 s⁻¹, the “IAG NH rate” value (IAG-nucleoside hydrolase; pH 8.0) is reported as under 0.01 min⁻¹ and the “IAG NH rate” value (IAG-nucleoside hydrolase; pH 10.0) is reported as under 0.01 min⁻¹.

With `Nc1ccc(O[C@@H]2O[C@H](CO)[C@@H](O)[C@H]2O)cc1` [Example 6, p-aminophenyl β-D-ribofuranoside] the “IU NH kcat” value (IU-nucleoside hydrolase; At pH 10, 30° C.) was under 0.01 s⁻¹.

For `O=C1OC(c2ccc(O)cc2)(c2ccc(O[C@@H]3O[C@H](CO)[C@@H](O)[C@H]3O)cc2)c2ccccc21` (stereo partly drawn) [Example 7, 3-(4-hydroxyphenyl)-1(3H)-isobenzofuranone-3-(phen-4-yl) β-D-ribofuranoside], the “IU NH kcat” value (IU-nucleoside hydrolase; At pH 10, at 200 μM) was 10 at sec^−1, the “IAG NH rate” value (IAG-nucleoside hydrolase; pH 8.0) was under 0.01 min⁻¹ and the “IAG NH rate” value (IAG-nucleoside hydrolase; pH 10.0) was under 0.01 min⁻¹.

With `O=[N+]([O-])c1ccccc1O[C@@H]1O[C@H](CO)[C@@H](O)[C@H]1O` [Example 9, 2-nitrophenyl β-D-ribofuranoside] the “substrate quality in words” value (IU-nucleoside hydrolase) was “good substrates” and the “IAG NH rate” value (IAG-nucleoside hydrolase; pH 10.0) was 0.15 min⁻¹.

With `Cc1cc(=O)oc2cc(O[C@@H]3O[C@H](CO)[C@@H](O)[C@H]3O)ccc12` [Example 10, 4-methylcoumarin-7-yl β-D-ribofuranoside] the “substrate quality in words” value (IU-nucleoside hydrolase) was “good substrates” and the “IAG NH rate” value (IAG-nucleoside hydrolase; pH 10.0) was 0.003 min⁻¹.

In the case of `OC[C@H]1O[C@@H](Oc2cccnc2)[C@H](O)[C@@H]1O` [Example 11, 3-pyridyl β-D-ribofuranoside], the “IAG NH rate” value (IAG-nucleoside hydrolase; pH 10.0) is reported as 0.01 min⁻¹.

`OC[C@H]1O[C@@H](Oc2ccncc2)[C@H](O)[C@@H]1O` [Example 12, 4-pyridyl β-D-ribofuranoside] was tested, and the “substrate quality in words” value (IU-nucleoside hydrolase) was “good substrates”, the “substrate quality in words” value (IU-nucleoside hydrolase; listed as 4-pyridyl riboside) was “lower activity” and the activity per cells [1] was 210 nmoles.min^−1 per 10^8 cells. For the same molecule, the “activity for the enzyme” value ([1]; protein by Lowry method) was 31 nmoles.min^−1.(mg protein)^−1, the “activity for the enzyme” value (T. vaginalis) was 4 nmoles.min^−1.(mg protein)^−1 and the activity per cells (T. vaginalis) was 74 nmoles.min^−1 per 10^−8 cells. The “substrate quality in words” value (IAG-nucleoside hydrolase) was “good substrates” and the “substrate quality in words” value (IAG-nucleoside hydrolase; listed as 4-pyridyl riboside) was “substantially greater activity”.

In the case of `OC[C@H]1O[C@@H](Oc2cccc3ncccc23)[C@H](O)[C@@H]1O` [Example 14, 5-quinolyl β-D-ribofuranoside], the “IAG NH rate” value (IAG-nucleoside hydrolase; pH 8.0) is reported as 0.16 min⁻¹ and the “IAG NH rate” value (IAG-nucleoside hydrolase; pH 10.0) is reported as under 0.01 min⁻¹.

In the case of `NC(=O)c1ccc(O[C@@H]2O[C@H](CO)[C@@H](O)[C@H]2O)nc1` [Example 19, 3-carboxamido-6-pyridyl β-D-ribofuranoside], the “substrate quality in words” value (IU-nucleoside hydrolase) is reported as “good substrates”, the “IU NH kcat” value (IU-nucleoside hydrolase; At pH 10, 30° C.) is reported as 141 s⁻¹ and the Km (IU-nucleoside hydrolase; At pH 10, 30° C.) is reported as 369 µM. The “substrate quality in words” value (IAG-nucleoside hydrolase) was “good substrates”, the “IAG NH rate” value (IAG-nucleoside hydrolase; pH 8.0) was over 100 min⁻¹ and the “IAG NH rate” value (IAG-nucleoside hydrolase; pH 10.0) was 24 min⁻¹.

`O=Cc1ccc(O[C@@H]2O[C@H](CO)[C@@H](O)[C@H]2O)cc1` [Example 20, 4-formylphenyl β-D-ribofuranoside] was tested, and the “IAG NH rate” value (IAG-nucleoside hydrolase; pH 10.0) was 0.01 min⁻¹.

With nitrophenylriboside 5-phosphate the kcat/Km ratio (AMP nucleosidase; kcat/Km for the nitrophenyl substrate to that for AMP) was 3 × 10^−7, the Km (AMP nucleosidase; [3]) was 6250 µM and the kcat (AMP nucleosidase; [3]) was 0.0004 s⁻¹.

In the case of “β-D-ribofuranoside of Luminol [Example 15]”, the “IU NH kcat” value (IU-nucleoside hydrolase; At pH 10, 30° C.) is reported as 163 s⁻¹, the Km (IU-nucleoside hydrolase; At pH 10, 30° C.) is reported as 133 µM and the “IAG NH rate” value (IAG-nucleoside hydrolase; pH 8.0) is reported as under 0.01 min⁻¹. For the same molecule, the “IAG NH rate” value (IAG-nucleoside hydrolase; pH 10.0) was under 0.03 min⁻¹.

B1: Purine nucleoside phosphorylase (Bos taurus) (protein)
chain: MANGYTYEDYQDTAKWLLSHTEQRPQVAVICGSGLGGLVNKLTQAQTFDYSEIPNFPESTVPGHAGRLVFGILNGRACVMMQGRFHMYEGYPFWKVTFPVRVFRLLGVETLVVTNAAGGLNPNFEVGDIMLIRDHINLPGFSGENPLRGPNEERFGVRFPAMSDAYDRDMRQKAHSTWKQMGEQRELQEGTYVMLGGPNFETVAECRLLRNLGADAVGMSTVPEVIVARHCGLRVFGFSLITNKVIMDYESQGKANHEEVLEAGKQAAQKLEQFVSLLMASIPVSGHTG
notes: The E. coli and bovine spleen enzymes tested; from tissue; host or cells: bovine spleen
B1 was tested, and the Km [2] was 224 µM, the kcat [2] was 0.0002 s⁻¹ and the kcat/Km [2] was 0.89 M⁻¹ s⁻¹.
